Values joined by “and” are separate entries in the source; they are usually repeats but may differ in a detail not shown here. Equal values may be shown once.
Key:
[1] = target: Bromodomain-containing protein 4 (Homo sapiens) (UniProt O60885); experiment: Alphascreen assay. Domain start/stop: N44-E168; conditions: Compound concentration 25.0 uM, Protein concentration 6.25 uM
[2] = target: Bromodomain-containing protein 9 (Homo sapiens) (UniProt Q9H8M2); experiment: Alphascreen assay. Domain start/stop: L14-Q143; conditions: Compound concentration 4.0 uM, Protein concentration 5.0 uM
Peregrin (Homo sapiens) [3] = target: T1, Peregrin (Homo sapiens) (UniProt P55201); experiment: Alphascreen assay. Domain start/stop: M626-G740; conditions: Protein concentration 50.0 uM
T1 sequence (whole entry): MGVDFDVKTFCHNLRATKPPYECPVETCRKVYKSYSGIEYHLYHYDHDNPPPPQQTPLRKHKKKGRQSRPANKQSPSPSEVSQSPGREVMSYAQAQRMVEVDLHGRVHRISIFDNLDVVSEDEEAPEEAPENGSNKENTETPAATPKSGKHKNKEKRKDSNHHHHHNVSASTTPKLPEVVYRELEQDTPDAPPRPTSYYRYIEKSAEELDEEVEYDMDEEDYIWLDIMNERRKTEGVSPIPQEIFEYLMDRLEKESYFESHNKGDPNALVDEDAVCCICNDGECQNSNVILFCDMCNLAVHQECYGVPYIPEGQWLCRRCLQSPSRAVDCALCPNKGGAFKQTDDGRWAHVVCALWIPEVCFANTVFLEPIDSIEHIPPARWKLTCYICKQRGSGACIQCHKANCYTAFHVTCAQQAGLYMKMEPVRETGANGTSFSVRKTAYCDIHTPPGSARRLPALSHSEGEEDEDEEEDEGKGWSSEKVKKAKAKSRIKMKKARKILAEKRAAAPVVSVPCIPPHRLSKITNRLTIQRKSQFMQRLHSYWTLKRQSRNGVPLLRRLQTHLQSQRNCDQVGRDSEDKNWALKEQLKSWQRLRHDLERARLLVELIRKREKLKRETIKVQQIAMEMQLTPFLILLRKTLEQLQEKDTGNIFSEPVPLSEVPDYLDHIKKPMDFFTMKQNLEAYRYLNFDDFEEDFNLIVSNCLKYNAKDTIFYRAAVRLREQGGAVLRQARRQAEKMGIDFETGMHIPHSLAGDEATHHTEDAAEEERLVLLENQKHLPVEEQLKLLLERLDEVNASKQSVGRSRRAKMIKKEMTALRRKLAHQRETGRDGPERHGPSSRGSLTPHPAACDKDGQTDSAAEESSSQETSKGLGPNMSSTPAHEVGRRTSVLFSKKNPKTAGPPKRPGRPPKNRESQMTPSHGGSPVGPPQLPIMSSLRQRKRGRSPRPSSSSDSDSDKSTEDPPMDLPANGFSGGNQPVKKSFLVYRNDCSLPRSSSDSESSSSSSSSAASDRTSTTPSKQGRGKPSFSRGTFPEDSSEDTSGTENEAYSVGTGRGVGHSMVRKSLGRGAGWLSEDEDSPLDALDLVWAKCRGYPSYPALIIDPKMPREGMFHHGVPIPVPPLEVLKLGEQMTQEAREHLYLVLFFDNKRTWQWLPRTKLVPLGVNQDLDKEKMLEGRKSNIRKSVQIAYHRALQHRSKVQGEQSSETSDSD

[4] = target: E3 ubiquitin-protein ligase TRIM33 (Homo sapiens) (UniProt Q9UPN9); experiment: Thermal Shift Assay. Domain start/stop: D882-P1073; conditions: Compound concentration 10.0 uM, Protein concentration 2.0 uM
[5] = target: Nucleosome-remodeling factor subunit BPTF (Homo sapiens) (UniProt Q12830)
Description: Alphascreen assay. Domain start/stop: S2791-H2911

[6] = target: Chromatin remodeling regulator CECR2 (Homo sapiens) (UniProt Q9BXF3); conditions: Compound concentration 4.0 uM, Protein concentration 19.0 uM
[7] = target: PH-interacting protein (Homo sapiens) (UniProt Q8WWQ0); conditions: Compound concentration 50.0 uM, Protein concentration 0.025 uM
[8] = target: Histone-lysine N-methyltransferase ASH1L (Homo sapiens) (UniProt Q9NR48); conditions: Compound concentration 10.0 uM, Protein concentration 2.0 uM
[9] = target: ATPase family AAA domain-containing protein 2 (Homo sapiens) (UniProt Q6PL18); conditions: Compound concentration 10.0 uM, Protein concentration 2.0 uM
[10] = target: ATPase family AAA domain-containing protein 2B (Homo sapiens) (UniProt Q9ULI0); conditions: Compound concentration 10.0 uM, Protein concentration 2.0 uM
[11] = target: Bromodomain adjacent to zinc finger domain protein 1A (Homo sapiens) (UniProt Q9NRL2); conditions: Compound concentration 10.0 uM, Protein concentration 2.0 uM
[12] = target: Tyrosine-protein kinase BAZ1B (Homo sapiens) (UniProt Q9UIG0); conditions: Compound concentration 10.0 uM, Protein concentration 2.0 uM
[13] = target: Bromodomain adjacent to zinc finger domain protein 2A (Homo sapiens) (UniProt Q9UIF9); conditions: Compound concentration 10.0 uM, Protein concentration 2.0 uM
[14] = target: Bromodomain adjacent to zinc finger domain protein 2B (Homo sapiens) (UniProt Q9UIF8); conditions: Compound concentration 10.0 uM, Protein concentration 2.0 uM
[15] = target: Nucleosome-remodeling factor subunit BPTF (Homo sapiens) (UniProt Q12830); conditions: Compound concentration 10.0 uM, Protein concentration 2.0 uM
[16] = target: Bromodomain-containing protein 1 (Homo sapiens) (UniProt O95696); conditions: Compound concentration 10.0 uM, Protein concentration 2.0 uM
[17] = target: Bromodomain-containing protein 2 (Homo sapiens) (UniProt P25440); conditions: Compound concentration 10.0 uM, Protein concentration 2.0 uM
[18] = target: Bromodomain-containing protein 2 (Homo sapiens) (UniProt P25440); conditions: Compound concentration 10.0 uM, Protein concentration 2.0 uM; remark: listed apart in the source
[19] = target: Bromodomain-containing protein 3 (Homo sapiens) (UniProt Q15059); conditions: Compound concentration 10.0 uM, Protein concentration 2.0 uM
[20] = target: Bromodomain-containing protein 3 (Homo sapiens) (UniProt Q15059); conditions: Compound concentration 10.0 uM, Protein concentration 2.0 uM; remark: listed apart in the source
[21] = target: Bromodomain-containing protein 4 (Homo sapiens) (UniProt O60885); conditions: Compound concentration 10.0 uM, Protein concentration 2.0 uM
[22] = target: Bromodomain-containing protein 7 (Homo sapiens) (UniProt Q9NPI1); conditions: Compound concentration 10.0 uM, Protein concentration 2.0 uM
[23] = target: Bromodomain-containing protein 9 (Homo sapiens) (UniProt Q9H8M2); conditions: Compound concentration 10.0 uM, Protein concentration 2.0 uM
[24] = target: Bromodomain testis-specific protein (Homo sapiens) (UniProt Q58F21); conditions: Compound concentration 10.0 uM, Protein concentration 2.0 uM
[25] = target: Bromodomain testis-specific protein (Homo sapiens) (UniProt Q58F21); conditions: Compound concentration 10.0 uM, Protein concentration 2.0 uM; remark: listed apart in the source
Peregrin (Homo sapiens) [26] = target: T1, Peregrin (Homo sapiens); conditions: Compound concentration 10.0 uM, Protein concentration 2.0 uM
[27] = target: Bromodomain and PHD finger-containing protein 3 (Homo sapiens) (UniProt Q9ULD4); conditions: Compound concentration 10.0 uM, Protein concentration 2.0 uM
[28] = target: Bromodomain and WD repeat-containing protein 1 (Homo sapiens) (UniProt Q9NSI6); conditions: Compound concentration 10.0 uM, Protein concentration 2.0 uM
[29] = target: Bromodomain and WD repeat-containing protein 3 (Homo sapiens) (UniProt Q6RI45); conditions: Compound concentration 10.0 uM, Protein concentration 2.0 uM
[30] = target: Chromatin remodeling regulator CECR2 (Homo sapiens) (UniProt Q9BXF3); conditions: Compound concentration 10.0 uM, Protein concentration 2.0 uM
[31] = target: Chromatin remodeling regulator CECR2 (Homo sapiens) (UniProt Q9BXF3); conditions: Compound concentration 10.0 uM, Protein concentration 2.0 uM; remark: listed apart in the source
[32] = target: CREB-binding protein (Homo sapiens) (UniProt Q92793); conditions: Compound concentration 10.0 uM, Protein concentration 2.0 uM
[33] = target: Histone acetyltransferase p300 (Homo sapiens) (UniProt Q09472); conditions: Compound concentration 10.0 uM, Protein concentration 2.0 uM
[34] = target: Histone acetyltransferase KAT2A (Homo sapiens) (UniProt Q92830); conditions: Compound concentration 10.0 uM, Protein concentration 2.0 uM
[35] = target: Histone acetyltransferase KAT2B (Homo sapiens) (UniProt Q92831); conditions: Compound concentration 10.0 uM, Protein concentration 2.0 uM
[36] = target: Histone-lysine N-methyltransferase 2A (Homo sapiens) (UniProt Q03164); conditions: Compound concentration 10.0 uM, Protein concentration 2.0 uM
[37] = target: Protein polybromo-1 (Homo sapiens) (UniProt Q86U86); conditions: Compound concentration 10.0 uM, Protein concentration 2.0 uM
[38] = target: Protein polybromo-1 (Homo sapiens) (UniProt Q86U86); conditions: Compound concentration 10.0 uM, Protein concentration 2.0 uM; remark: listed apart in the source
[39] = target: Protein polybromo-1 (Homo sapiens) (UniProt Q86U86); conditions: Compound concentration 10.0 uM, Protein concentration 2.0 uM; remark: listed apart in the source
[40] = target: Protein polybromo-1 (Homo sapiens) (UniProt Q86U86); conditions: Compound concentration 10.0 uM, Protein concentration 2.0 uM; remark: listed apart in the source
[41] = target: Protein polybromo-1 (Homo sapiens) (UniProt Q86U86); conditions: Compound concentration 10.0 uM, Protein concentration 2.0 uM; remark: listed apart in the source
[42] = target: Protein polybromo-1 (Homo sapiens) (UniProt Q86U86); conditions: Compound concentration 10.0 uM, Protein concentration 2.0 uM; remark: listed apart in the source
[43] = target: PH-interacting protein (Homo sapiens) (UniProt Q8WWQ0); conditions: Compound concentration 10.0 uM, Protein concentration 2.0 uM
[44] = target: SWI/SNF-related matrix-associated actin-dependent regulator of chromatin subfamily A member 2 (Homo sapiens) (UniProt P51531); conditions: Compound concentration 10.0 uM, Protein concentration 2.0 uM
[45] = target: SWI/SNF-related matrix-associated actin-dependent regulator of chromatin subfamily A member 4 (Homo sapiens) (UniProt P51532); conditions: Compound concentration 10.0 uM, Protein concentration 2.0 uM
[46] = target: Nuclear body protein SP140 (Homo sapiens) (UniProt Q13342); conditions: Compound concentration 10.0 uM, Protein concentration 2.0 uM
[47] = target: Nuclear body protein SP140-like protein (Homo sapiens) (UniProt Q9H930); conditions: Compound concentration 10.0 uM, Protein concentration 2.0 uM
[48] = target: Transcription initiation factor TFIID subunit 1 (Homo sapiens) (UniProt P21675); conditions: Compound concentration 10.0 uM, Protein concentration 2.0 uM
[49] = target: Transcription initiation factor TFIID subunit 1 (Homo sapiens) (UniProt P21675); conditions: Compound concentration 10.0 uM, Protein concentration 2.0 uM; remark: listed apart in the source
[50] = target: Transcription initiation factor TFIID subunit 1-like (Homo sapiens) (UniProt Q8IZX4); conditions: Compound concentration 10.0 uM, Protein concentration 2.0 uM
[51] = target: Transcription initiation factor TFIID subunit 1-like (Homo sapiens) (UniProt Q8IZX4); conditions: Compound concentration 10.0 uM, Protein concentration 2.0 uM; remark: listed apart in the source
[52] = target: Transcription intermediary factor 1-alpha (Homo sapiens) (UniProt O15164); conditions: Compound concentration 10.0 uM, Protein concentration 2.0 uM
[53] = target: Transcription intermediary factor 1-beta (Homo sapiens) (UniProt Q13263); conditions: Compound concentration 10.0 uM, Protein concentration 2.0 uM
Peregrin (Homo sapiens) [54] = target: T1, Peregrin (Homo sapiens); conditions: Compound concentration 10.0 uM, Protein concentration 2.0 uM; remark: listed apart in the source

Chain of Bromodomain-containing protein 9 (Homo sapiens) (Q9H8M2 whole entry): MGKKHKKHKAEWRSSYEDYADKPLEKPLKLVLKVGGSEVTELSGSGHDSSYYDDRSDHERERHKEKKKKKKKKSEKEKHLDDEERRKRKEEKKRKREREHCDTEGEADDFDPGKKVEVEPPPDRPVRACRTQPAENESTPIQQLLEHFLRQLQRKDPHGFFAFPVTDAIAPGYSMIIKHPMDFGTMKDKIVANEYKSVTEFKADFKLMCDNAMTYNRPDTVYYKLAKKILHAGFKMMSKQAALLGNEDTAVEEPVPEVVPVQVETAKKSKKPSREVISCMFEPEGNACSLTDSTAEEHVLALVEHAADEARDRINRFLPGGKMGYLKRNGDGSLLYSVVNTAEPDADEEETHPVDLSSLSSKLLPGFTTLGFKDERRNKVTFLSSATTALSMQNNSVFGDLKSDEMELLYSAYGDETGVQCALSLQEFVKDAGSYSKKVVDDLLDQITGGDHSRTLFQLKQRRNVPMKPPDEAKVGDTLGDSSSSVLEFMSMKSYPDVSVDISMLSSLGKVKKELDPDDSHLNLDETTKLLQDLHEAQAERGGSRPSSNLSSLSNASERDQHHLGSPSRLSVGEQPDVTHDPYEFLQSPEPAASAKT
Chain of Chromatin remodeling regulator CECR2 (Homo sapiens) (Q9BXF3 whole entry, looked up): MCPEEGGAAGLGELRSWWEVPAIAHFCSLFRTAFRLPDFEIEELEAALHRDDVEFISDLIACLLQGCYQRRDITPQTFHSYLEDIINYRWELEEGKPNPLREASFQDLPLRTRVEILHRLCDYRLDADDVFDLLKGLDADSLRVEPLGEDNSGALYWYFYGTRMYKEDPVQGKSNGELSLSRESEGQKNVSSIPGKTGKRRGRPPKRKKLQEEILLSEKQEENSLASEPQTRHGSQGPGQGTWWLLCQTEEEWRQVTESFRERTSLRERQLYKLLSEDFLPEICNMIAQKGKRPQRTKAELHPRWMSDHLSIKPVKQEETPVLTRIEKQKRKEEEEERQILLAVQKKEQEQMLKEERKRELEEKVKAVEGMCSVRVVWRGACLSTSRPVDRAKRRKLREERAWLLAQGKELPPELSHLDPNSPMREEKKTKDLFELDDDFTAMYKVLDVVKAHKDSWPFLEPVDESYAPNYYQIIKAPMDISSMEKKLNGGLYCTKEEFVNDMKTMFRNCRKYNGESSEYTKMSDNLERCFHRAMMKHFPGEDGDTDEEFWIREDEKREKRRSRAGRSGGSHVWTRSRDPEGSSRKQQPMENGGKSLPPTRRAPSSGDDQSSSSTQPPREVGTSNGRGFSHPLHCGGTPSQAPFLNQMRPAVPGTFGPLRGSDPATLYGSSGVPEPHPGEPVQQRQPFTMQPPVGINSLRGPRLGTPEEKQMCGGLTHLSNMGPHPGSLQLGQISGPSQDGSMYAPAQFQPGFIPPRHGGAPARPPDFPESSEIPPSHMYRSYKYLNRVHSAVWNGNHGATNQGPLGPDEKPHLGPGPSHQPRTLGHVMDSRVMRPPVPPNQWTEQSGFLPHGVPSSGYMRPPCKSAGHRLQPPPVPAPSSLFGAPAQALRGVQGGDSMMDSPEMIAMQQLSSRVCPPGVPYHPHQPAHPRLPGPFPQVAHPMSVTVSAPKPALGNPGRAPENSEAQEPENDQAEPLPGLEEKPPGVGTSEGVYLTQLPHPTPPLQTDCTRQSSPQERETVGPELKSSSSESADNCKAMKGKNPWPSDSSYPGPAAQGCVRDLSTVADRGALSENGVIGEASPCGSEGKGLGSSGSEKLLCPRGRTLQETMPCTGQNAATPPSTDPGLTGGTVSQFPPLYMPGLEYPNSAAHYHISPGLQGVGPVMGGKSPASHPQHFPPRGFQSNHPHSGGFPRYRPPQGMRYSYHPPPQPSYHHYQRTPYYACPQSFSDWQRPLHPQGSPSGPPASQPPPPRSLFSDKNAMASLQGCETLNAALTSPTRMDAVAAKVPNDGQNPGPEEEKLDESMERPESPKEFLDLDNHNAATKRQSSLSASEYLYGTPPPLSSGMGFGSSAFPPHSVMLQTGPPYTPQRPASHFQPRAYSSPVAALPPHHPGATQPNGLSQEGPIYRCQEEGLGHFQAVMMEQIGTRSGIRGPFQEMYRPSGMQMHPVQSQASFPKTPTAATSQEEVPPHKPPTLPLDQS
Chain of Protein polybromo-1 (Homo sapiens) (Q86U86 whole entry): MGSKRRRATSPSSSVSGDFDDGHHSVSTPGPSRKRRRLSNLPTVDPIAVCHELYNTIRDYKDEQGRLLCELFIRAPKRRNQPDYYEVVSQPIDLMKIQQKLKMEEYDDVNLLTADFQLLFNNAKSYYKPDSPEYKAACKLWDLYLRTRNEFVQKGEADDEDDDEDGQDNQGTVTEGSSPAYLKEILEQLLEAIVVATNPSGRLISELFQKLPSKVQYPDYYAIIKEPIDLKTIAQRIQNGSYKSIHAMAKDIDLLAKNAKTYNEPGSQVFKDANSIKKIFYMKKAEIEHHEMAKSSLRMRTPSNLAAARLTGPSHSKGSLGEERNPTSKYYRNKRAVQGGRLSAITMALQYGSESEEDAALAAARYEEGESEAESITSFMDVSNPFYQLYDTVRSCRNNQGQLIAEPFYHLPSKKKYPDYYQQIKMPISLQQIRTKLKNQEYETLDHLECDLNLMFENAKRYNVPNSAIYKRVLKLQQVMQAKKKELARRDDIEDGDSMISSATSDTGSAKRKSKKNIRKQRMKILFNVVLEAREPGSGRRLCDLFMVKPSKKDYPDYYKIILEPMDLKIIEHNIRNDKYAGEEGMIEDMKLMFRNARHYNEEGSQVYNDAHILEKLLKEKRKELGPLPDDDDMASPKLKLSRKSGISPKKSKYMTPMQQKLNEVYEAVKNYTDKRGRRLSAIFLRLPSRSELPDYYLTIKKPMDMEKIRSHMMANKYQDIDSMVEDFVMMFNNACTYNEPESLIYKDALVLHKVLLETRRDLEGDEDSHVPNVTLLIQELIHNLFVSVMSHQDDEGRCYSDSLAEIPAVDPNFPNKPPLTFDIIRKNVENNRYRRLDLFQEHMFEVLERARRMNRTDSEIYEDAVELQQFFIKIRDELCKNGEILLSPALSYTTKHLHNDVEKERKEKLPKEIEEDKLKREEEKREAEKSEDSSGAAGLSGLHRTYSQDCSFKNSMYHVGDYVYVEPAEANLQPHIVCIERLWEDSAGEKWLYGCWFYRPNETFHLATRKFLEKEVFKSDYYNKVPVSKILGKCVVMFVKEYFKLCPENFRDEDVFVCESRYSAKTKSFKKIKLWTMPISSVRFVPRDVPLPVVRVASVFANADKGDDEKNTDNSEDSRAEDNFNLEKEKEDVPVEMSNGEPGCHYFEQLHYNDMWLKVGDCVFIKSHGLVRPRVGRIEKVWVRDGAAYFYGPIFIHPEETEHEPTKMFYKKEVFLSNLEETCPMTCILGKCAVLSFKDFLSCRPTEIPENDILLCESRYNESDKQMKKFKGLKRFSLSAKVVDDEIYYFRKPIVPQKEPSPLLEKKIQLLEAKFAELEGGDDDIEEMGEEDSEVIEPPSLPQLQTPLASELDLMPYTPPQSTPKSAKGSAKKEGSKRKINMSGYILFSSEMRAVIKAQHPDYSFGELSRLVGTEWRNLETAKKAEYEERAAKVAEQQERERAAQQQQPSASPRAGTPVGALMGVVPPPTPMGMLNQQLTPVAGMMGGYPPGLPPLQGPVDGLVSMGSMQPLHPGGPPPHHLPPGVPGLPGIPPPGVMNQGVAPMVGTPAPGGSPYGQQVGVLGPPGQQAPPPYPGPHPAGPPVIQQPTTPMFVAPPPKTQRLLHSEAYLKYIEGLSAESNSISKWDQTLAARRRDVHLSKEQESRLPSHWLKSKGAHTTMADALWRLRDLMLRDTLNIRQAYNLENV
Chain of Bromodomain-containing protein 2 (Homo sapiens) (P25440 whole entry, looked up): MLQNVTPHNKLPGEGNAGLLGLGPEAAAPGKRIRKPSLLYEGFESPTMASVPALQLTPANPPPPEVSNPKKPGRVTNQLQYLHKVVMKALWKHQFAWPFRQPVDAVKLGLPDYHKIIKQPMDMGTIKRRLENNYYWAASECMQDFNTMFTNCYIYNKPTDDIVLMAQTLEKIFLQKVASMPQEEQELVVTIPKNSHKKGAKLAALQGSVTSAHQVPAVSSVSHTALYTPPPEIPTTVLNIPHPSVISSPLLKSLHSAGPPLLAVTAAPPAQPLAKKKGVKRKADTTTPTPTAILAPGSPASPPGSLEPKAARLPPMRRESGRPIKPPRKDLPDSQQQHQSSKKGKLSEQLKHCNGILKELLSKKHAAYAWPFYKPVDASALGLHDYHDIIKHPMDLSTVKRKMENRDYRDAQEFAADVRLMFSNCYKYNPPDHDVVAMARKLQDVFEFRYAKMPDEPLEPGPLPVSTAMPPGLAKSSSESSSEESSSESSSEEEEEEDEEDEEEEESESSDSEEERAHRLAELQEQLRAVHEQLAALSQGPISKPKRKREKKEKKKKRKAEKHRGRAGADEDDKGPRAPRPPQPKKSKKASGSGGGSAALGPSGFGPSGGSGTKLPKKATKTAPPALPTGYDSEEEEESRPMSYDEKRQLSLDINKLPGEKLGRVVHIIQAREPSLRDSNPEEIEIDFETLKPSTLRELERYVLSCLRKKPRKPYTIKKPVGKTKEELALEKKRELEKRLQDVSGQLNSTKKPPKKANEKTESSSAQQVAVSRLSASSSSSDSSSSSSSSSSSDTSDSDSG

SMILES: Cc1cc(=O)n(C)c2cc(N3C(=O)CC[C@@H](NS(=O)(=O)CC(C)C)[C@@H]3c3ccc(Cl)cc3)ccc12
- inhibition [1]: 4.77%
- inhibition [2]: 95.6%
- inhibition (Peregrin (Homo sapiens) [3]; Compound concentration 1.25 uM): 1.84%
- inhibition (Peregrin (Homo sapiens) [3]; Compound concentration 4.0 uM): 3.88%
- ΔTm [4]: 0.14 °C
- inhibition ([5]; Compound concentration 0.25 uM, Protein concentration 19.0 uM): 3.67%
- inhibition ([5]; Compound concentration 0.25 uM, Protein concentration 20.0 uM): 7.02%
- inhibition ([5]; Compound concentration 4.0 uM, Protein concentration 19.0 uM): 7.64%
- inhibition [6]: 10.7%
- inhibition [7]: 1.4% and 14.2%
- ΔTm [8]: 0.17 °C
- ΔTm [9]: 0.02 °C
- ΔTm [10]: 0.35 °C
- ΔTm [11]: -0.09 °C
- ΔTm [12]: -0.45 °C
- ΔTm [13]: -0.38 °C
- ΔTm [14]: -0.02 °C
- ΔTm [15]: 1.82 °C
- ΔTm [16]: 0.01 °C
- ΔTm [17]: 0.38 °C
- ΔTm [18]: -0.14 °C
- ΔTm [19]: 0.15 °C
- ΔTm [20]: -0.26 °C
- ΔTm [21]: -0.08 °C
- ΔTm [22]: 10.1 °C and 10.7 °C
- ΔTm [23]: 5.28 °C and 8.25 °C and 6.82 °C
- ΔTm [24]: 0.06 °C
- ΔTm [25]: 0.17 °C
- ΔTm (Peregrin (Homo sapiens) [26]): -0.09 °C and 0.15 °C
- ΔTm [27]: -0.05 °C
- ΔTm [28]: -0.43 °C
- ΔTm [29]: 0.82 °C
- ΔTm [30]: 0.69 °C
- ΔTm [31]: 0.17 °C
- ΔTm [32]: 0.17 °C and -0.28 °C
- ΔTm [33]: 0.03 °C
- ΔTm [34]: -0.21 °C
- ΔTm [35]: 0.09 °C
- ΔTm [36]: 0.6 °C
- ΔTm [37]: 0.15 °C and 0.13 °C
- ΔTm [38]: -0.12 °C
- ΔTm [39]: 0.16 °C
- ΔTm [40]: 0.01 °C
- ΔTm [41]: 0.76 °C
- ΔTm [42]: 0.14 °C
- ΔTm [43]: -0.48 °C
- ΔTm [44]: 0.44 °C
- ΔTm [45]: 0.16 °C
- ΔTm [46]: 0.44 °C
- ΔTm [47]: 0.96 °C
- ΔTm [48]: 0.33 °C
- ΔTm [49]: 1.22 °C
- ΔTm [50]: 0.27 °C
- ΔTm [51]: 0.24 °C
- ΔTm [52]: -0.09 °C
- ΔTm [53]: 0.2 °C
- ΔTm (Peregrin (Homo sapiens) [54]): -0.19 °C

Reference: ChEMBL document CHEMBL4649991
